The results in this text go back to patent publication US20120009277A1, “METHOD FOR SELECTION OF NOVEL ANTI-CANCER HERBS USING CHEMINFORMATIC TOOLS” (priority 2010, published 2012).

Molecules are shown by their SMILES.

Holding throughout (assay type): cell-based
For experiment [1], the system named is A2780/cp (human ovarian carcinoma, resistant to cisplatin). As to the kind of experiment: MTT cytotoxicity assay on A2780/cp cells, single agents and cisplatin combinations. Conditions: cisplatin alone, 24 hr. The protocol:
(§1) Anticancer drug resistant cancerous cell lines; A2780/cp (human ovarian carcinoma, resistant to cisplatin) NCBI C454, ACHN (human renal adenocarcinoma) NCBI C206, and normal cell line HF2 (human fetal fibroblast) NCBI C336 herein used as a cell negative control are obtained from National Cell Bank of Iran, Pasture Institute of Iran (Tehran). These cells are maintained in RPMI 1640 medium supplemented with 10% FCS in a humidified incubator (37° C. and 5% CO2).
(§2) Cells are cultured in RPMI-1640 medium supplemented with 10% heat inactivated FCS, 2 mM glutamine, penicillin ([…]) and streptomycin (100 μg/ml) at 37° C. in an incubator containing 5% CO2.
(§3) Harvested cells with trypsin (0.25%) are counted by Neubauer slide and then are seeded into 96-well plates (104 cell/well). […] The insoluble formazan produced is dissolved in solution containing 100 μl DMSO (Dimethyl sulfoxide) and Optical Density (absorbance) is read against blank reagent with Multiwell scanning spectrophotometer (ELISA reader, Organon Tekninka, the Netherlands) at a wavelength of 545 nm. The percentage of cytotoxicity is calculated according to following equations: […]

Experiment [2] relates to ACHN (human renal adenocarcinoma). As to the kind of experiment: MTT cytotoxicity assay on ACHN cells, single agents and doxorubicin combinations. The settings on record: doxorubicin alone, 24 hr. The protocol:
as §1, §2, §3

Experiment [3] has as its system HF2 (human fetal fibroblast). As to the kind of experiment: MTT cytotoxicity assay on HF2 normal cells, single agents and doxorubicin combinations. The settings on record: doxorubicin alone, 24 hr. The protocol: as §1, §2, §3

With `N.N.[Cl][Pt][Cl]` [Cisplatin], the IC50 in experiment [1] was 42.5 µM.

Take `COc1cccc2c1C(=O)c1c(O)c3c(c(O)c1C2=O)C[C@@](O)(C(=O)CO)C[C@@H]3O[C@H]1C[C@H](N)[C@H](O)[C@H](C)O1` [Doxorubicin]: the results for the IC50 in experiment [2] and in experiment [3] were 3.92 µM and 1.31 µM, respectively.
